Data: US20180194762A1 (Pharmacyclics LLC, priority 2017, published 2018)
Read-outs that look alike come from different tables or passages of the source.

Experiments:
Type in all cases: biochemical
Btk = target: T1, Btk (Homo sapiens, UniProt Q06187); assay: Btk in vitro inhibitory activity (one of Method A TR-FRET, Method B electrophoretic mobility shift, Method C radiometric filter binding)
T1 construct: purified from insect cells as a full-length construct containing a N-terminal 6X-His tag; His6 (N); made in house; host or cells: insect cells (Method C)
T1 sequence (Q06187 whole entry): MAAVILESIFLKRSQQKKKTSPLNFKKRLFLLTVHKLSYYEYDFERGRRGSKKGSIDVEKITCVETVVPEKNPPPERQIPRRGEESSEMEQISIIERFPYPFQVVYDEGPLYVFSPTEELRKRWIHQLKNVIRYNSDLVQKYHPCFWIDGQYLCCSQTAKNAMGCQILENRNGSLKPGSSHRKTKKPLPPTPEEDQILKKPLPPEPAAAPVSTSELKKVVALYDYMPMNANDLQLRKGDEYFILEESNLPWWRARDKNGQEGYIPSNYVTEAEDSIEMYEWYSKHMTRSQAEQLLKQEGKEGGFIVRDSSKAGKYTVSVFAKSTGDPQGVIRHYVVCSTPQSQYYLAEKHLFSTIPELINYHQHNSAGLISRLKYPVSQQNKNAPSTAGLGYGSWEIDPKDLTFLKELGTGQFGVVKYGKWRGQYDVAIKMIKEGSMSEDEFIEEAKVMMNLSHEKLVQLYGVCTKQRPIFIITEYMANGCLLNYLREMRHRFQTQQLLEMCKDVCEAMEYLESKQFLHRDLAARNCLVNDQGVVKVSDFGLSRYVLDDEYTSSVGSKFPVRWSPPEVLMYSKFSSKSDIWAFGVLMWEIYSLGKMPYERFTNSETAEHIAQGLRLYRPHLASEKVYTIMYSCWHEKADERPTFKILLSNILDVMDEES
Method: Example 62a: Btk In Vitro Inhibitory Activity (Method A)
Btk kinase activity is determined using a time-resolved fluorescence resonance energy transfer (TR-FRET) methodology. Measurements are performed in a reaction volume of 50 μL using 96-well assay plates. […] The reaction is quenched by the addition of 1.2 equivalents of EDTA (relative to divalent cation) in 25 μL of 1× Lance buffer (Perkin-Elmer). Streptavidin-APC (Perkin-Elmer) and Eu-labeled p-Tyr100 antibody (Perkin-Elmer) in 1× Lance buffer are added in a 25 μL volume to give final concentrations of 100 nM and 2.5 nM, respectively, and the mixture is allowed to incubate for one hour. The TR-FRET signal is measured on a multimode plate reader with an excitation wavelength (λEx) of 330 nm and detection wavelengths (λEm) of 615 and 665 nm. Activity is determined by the ratio of the fluorescence at 665 nm to that at 615 nm. For each compound, enzyme activity is measured at various concentrations of compound. Negative control reactions are performed in the absence of inhibitor in replicates of six, and two no-enzyme controls are used to determine baseline fluorescence levels. Inhibition constants, Ki(app), were obtained using the program BatchKi (Kuzmic et al. (2000), Anal. Biochem. 286:45-50). IC50s are obtained according to the equation:
IC50={Ki(app)/(1+[ATP]/Km^ATP)}+[E]total/2;
For all kinases, [ATP]=Km^ATP, [Btk]total=0.5 nM and [Lck]total=6 nM.
Example 62b: Btk In Vitro Inhibitory Activity (Method B)
Kinase activity is measured in vitro using electrophoretic mobility shift assay. The kinase reactions are assembled in a total volume of 25 μL in 384 well plates. The reactions comprise: BTK enzyme (1 nM, N-terminal His6-tagged, recombinant, full-length, human BTK purified from baculovirus Sf21 insect cell system, 293HEK, or other suitable source), inhibitor, ATP, fluorescently labeled peptide substrate (1 μM, FAM-GEEPLYWSFPAKKK-NH2) in a reaction buffer composed of 100 mM HEPES, pH7.5, 5 mM MgCl2 1 mM DTT, 0.1% bovine serum albumin, 0.01% Triton X-100, and 1% DMSO. The reaction is incubated and is quenched by the addition of termination buffer (100 mM HEPES, pH 7.5, 0.01% Triton X-100, 30 mM EDTA). The terminated reactions are analyzed using a 12 channel LabChip® 3000 microfluidic detection instrument (Caliper Life Sciences). The enzymatic phosphorylation of the peptide results in a change in net charge, enabling electrophoretic separation of product from substrate peptide. As substrate and product peptides are separated, two peaks of fluorescence are observed. Change in the relative fluorescence intensity of the substrate and product peaks is the parameter measured, reflecting enzyme activity. In the presence of an inhibitor, the ratio between product and substrate is altered: the signal of the product decreases, while the signal of the substrate increases.
Activity in each sample is determined as the product to sum ratio (PSR):P/(S+P), where P is the peak height of the product peptide and S is the peak height of the substrate peptide. For each compound, enzyme activity is measured at various concentrations (12 concentrations of compound spaced by 3× dilution intervals). Negative control samples (0%—inhibition in the absence of inhibitor) and positive control samples (100%—inhibition, in the presence of 20 mM EDTA) are assembled in replicates of four and are used to calculate %—inhibition values for each inhibitor at each concentration. Percent inhibition (Pinh) is determined using following equation:
Pinh=(PSR0%−PSRinh)/(PSR0%−PSR100%)*100, where PSRinh is the product sum ratio in the presence of inhibitor, PSR0% is the average product sum ration in the absence of inhibitor and PSR100% is the average product sum ratio in 100%—inhibition control samples.
The IC50 values of inhibitors are determined by 4 parameter sigmoidal dose-response model fitting of the inhibition curves (Pinh versus inhibitor concentration) using XLfit 4 software. […]

TEC = target: T2, TEC (Homo sapiens, UniProt P42680); assay: Inhibition of a panel of kinases (in vitro HotSpot kinase assay, 33P-ATP, 1 μM ATP); details: for IC50: HotSpot kinase assay, 1 μM ATP; for TEC/Btk: ratio of TEC IC50 to Btk IC50 (selectivity)
T2 sequence (P42680 1-631): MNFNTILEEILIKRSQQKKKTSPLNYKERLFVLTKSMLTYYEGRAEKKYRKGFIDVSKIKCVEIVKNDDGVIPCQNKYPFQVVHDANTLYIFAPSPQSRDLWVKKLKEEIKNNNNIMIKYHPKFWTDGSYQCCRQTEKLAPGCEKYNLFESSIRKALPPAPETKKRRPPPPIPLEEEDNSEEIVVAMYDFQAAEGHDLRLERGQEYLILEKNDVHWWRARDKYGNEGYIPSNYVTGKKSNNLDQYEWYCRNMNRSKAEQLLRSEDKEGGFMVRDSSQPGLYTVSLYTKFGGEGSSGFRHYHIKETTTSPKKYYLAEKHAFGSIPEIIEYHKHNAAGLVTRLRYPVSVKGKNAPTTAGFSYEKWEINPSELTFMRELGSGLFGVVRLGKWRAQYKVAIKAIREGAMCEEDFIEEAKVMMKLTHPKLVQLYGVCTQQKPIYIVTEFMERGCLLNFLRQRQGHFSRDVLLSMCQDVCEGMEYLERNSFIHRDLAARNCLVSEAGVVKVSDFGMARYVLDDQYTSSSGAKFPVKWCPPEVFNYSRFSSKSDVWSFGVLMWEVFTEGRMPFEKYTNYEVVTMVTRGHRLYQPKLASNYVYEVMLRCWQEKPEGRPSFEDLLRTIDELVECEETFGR
Method: (§1) Example 63: Inhibition of a Panel of Kinases The degree of inhibition of a panel of kinases is determined using the in vitro HotSpot kinase assay (purified enzymes, ^33P-ATP, an appropriate substrate and 1 μM ATP).

panel of kinases = target: T3, panel of kinases (Homo sapiens, UniProt P51813); assay: Inhibition of a panel of kinases (in vitro HotSpot kinase assay, 33P-ATP, 1 μM ATP), other kinases; details: BMX wild-type, read-out: BMX-WT IC50
T3 sequence (P51813 1-675): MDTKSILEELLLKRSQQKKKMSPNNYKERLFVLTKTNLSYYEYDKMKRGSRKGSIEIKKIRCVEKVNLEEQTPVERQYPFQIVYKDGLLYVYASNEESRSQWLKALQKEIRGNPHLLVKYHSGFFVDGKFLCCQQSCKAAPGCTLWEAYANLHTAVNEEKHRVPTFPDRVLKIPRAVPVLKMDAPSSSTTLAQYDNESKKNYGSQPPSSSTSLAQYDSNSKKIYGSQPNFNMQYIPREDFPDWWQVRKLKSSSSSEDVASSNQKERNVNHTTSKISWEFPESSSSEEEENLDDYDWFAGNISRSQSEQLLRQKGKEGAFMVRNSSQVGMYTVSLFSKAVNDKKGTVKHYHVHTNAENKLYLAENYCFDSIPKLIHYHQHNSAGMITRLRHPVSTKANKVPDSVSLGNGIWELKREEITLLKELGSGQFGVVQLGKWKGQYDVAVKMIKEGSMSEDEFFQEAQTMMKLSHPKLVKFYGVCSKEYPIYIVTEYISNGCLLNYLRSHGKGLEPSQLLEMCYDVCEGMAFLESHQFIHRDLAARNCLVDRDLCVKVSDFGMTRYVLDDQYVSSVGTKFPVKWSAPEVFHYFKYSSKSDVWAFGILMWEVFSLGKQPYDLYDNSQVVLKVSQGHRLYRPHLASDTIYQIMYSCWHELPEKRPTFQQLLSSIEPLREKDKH
Method: as §1

[1] = wild-type Btk, read-out: Btk-WT IC50

Row | IC50 (Btk; [1]) [µM] | IC50 (TEC) [µM] | IC50 (Btk; method is one of A, B or C, not stated which, read-out: IC50 values against Btk) [µM] | TEC/Btk (TEC) | IC50 (panel of kinases) [µM] | SMILES
1 | > 10 | 9.64 |  |  |  | C[C@H](NC(=O)c1noc(C(C)(C)C)n1)c1ccc(-c2ccnc3[nH]nc(N[C@@H]4CCN(C=O)C4)c23)cc1 [Example 96, 5-tert-butyl-N-[(1S)-1-[4-(3-{[(3R)-1-formylpyrrolidin-3-yl]amino}-1H-pyrazolo[3,4-b]pyridin-4-yl)phenyl]ethyl]-1,2,4-oxadiazole-3-carboxamide]
2 | 0.129 | 7.93 |  | 61 |  | C[C@@H]1[C@H](Nc2n[nH]c3nccc(-c4ccc(CNC(=O)c5noc(C(C)(C)C)n5)c(F)c4)c23)CCCN1C(=O)N1CCCC1 [Example 136, 5-tert-butyl-N-{[2-fluoro-4-(3-{[(2R,3R)-2-methyl-1-(pyrrolidine-1-carbonyl)piperidin-3-yl]amino}-1H-pyraozlo[3,4-b]pyridin-4-yl)phenyl]methyl}-1,2,4-oxadiazole-3-carboxamide]
3 | > 10 | > 10 |  |  |  | C[C@@H]1[C@H](Nc2n[nH]c3nccc(-c4ccc(CNC(=O)c5noc(C(C)(C)C)n5)c(F)c4)c23)CCCN1C(=O)NCC(F)(F)F [Example 137, (2R,3R)-3-{[4-(4-{[(5-tert-butyl-1,2,4-oxadiazol-3-yl)formamido]methyl}-3-fluorophenyl)-1H-pyrazolo[3,4-b]pyridin-3-yl]amino}-2-methyl-N-(2,2,2-trifluoroethyl)piperidine-1-carboxamide]
4 | 0.0212 | 4.17 |  | 197 |  | C[C@@H]1[C@H](Nc2n[nH]c3nccc(-c4ccc(CNC(=O)c5noc(C(C)(C)C)n5)c(F)c4)c23)CCCN1CC#N [Example 142, 5-tert-butyl-N-{[4-(3-{[(2R,3R)-1-(cyanomethyl)-2-methylpiperidin-3-yl]amino}-1H-pyrazolo[3,4-b]pyridin-4-yl)-2-fluorophenyl]methyl}-1,2,4-oxadiazole-3-carboxamide]
5 |  |  |  |  | 4.86 | Cc1nc(C(=O)NCc2ccc(-c3ccnc4[nH]nc(N[C@@H]5CC[C@H](C)N(C(=O)N(C)C)C5)c34)cc2F)oc1C [Example 194, (2S,5R)-5-{[4-(4-{[(4,5-dimethyl-1,3-oxazole-2-carbonyl)amino]methyl}-3-fluorophenyl)-1H-pyrazolo[3,4-b]pyridin-3-yl]amino}-N,N,2-trimethylpiperidine-1-carboxamide]

Further lines, the compound ahead of its results:

Row | SMILES | IC50 (Btk; [1]) [µM] | IC50 (TEC) [µM] | IC50 (Btk; method is one of A, B or C, not stated which, read-out: IC50 values against Btk) [µM] | TEC/Btk (TEC) | IC50 (panel of kinases) [µM]
6 | C[C@@H](NC(=O)c1noc(C(C)(C)C)n1)c1ccc(-c2ccnc3[nH]nc(N[C@@H]4CCN(C=O)C4)c23)cc1 [Example 99, 5-tert-butyl-N-[(1R)-1-[4-(3-{[(3R)-1-formylpyrrolidin-3-yl]amino}-1H-pyrazolo[3,4-b]pyridin-4-yl)phenyl]ethyl]-1,2,4-oxadiazole-3-carboxamide] | 0.00446 | 1.43 | < 0.01 | 321 | 
7 | C[C@@H]1[C@H](Nc2n[nH]c3nccc(-c4ccc(CNC(=O)c5noc(C(C)(C)C)n5)c(F)c4)c23)CCCN1C(=O)CC#N [Example 139, 5-tert-butyl-N-{[4-(3-{[(2R,3R)-1-(2-cyanoacetyl)-2-methylpiperidin-3-yl]amino}-1H-pyrazolo[3,4-b]pyridin-4-yl)-2-fluorophenyl]methyl}-1,2,4-oxadiazole-3-carboxamide] | 0.0464 | 5.76 |  | 124 | 
8 | C[C@@H]1[C@H](Nc2n[nH]c3nccc(-c4ccc(CNC(=O)c5noc(C(C)(C)C)n5)c(F)c4)c23)CCCN1S(=O)(=O)C1CC1 [Example 141, 5-tert-butyl-N-{[4-(3-{[(2R,3R)-1-(cyclopropanesulfonyl)-2-methylpiperidin-3-yl]amino}-1H-pyrazolo[3,4-b]pyridin-4-yl)-2-fluorophenyl]methyl}-1,2,4-oxadiazole-3-carboxamide] | 0.03 | 3.05 |  | 102 | 
9 | CC(C)(C)c1nc(C(=O)NC2(c3ccc(-c4ccnc5[nH]nc(NC6CCCN(C=O)C6)c45)cc3)CC2)no1 (centres unmarked) [Example 271, 5-tert-butyl-N-[1-(4-{3-[(1-formylpiperidin-3-yl)amino]-1H-pyrazolo[3,4-b]pyridin-4-yl}phenyl)cyclopropyl]-1,2,4-oxadiazole-3-carboxamide] | 0.111 | 5.87 |  | 053 | 
10 | CC(C)(C)c1nc(C(=O)NCc2ccc(-c3ccnc4[nH]nc(O[C@@H]5CCN(C=O)C5)c34)cc2F)no1 [Example 273, 5-tert-butyl-N-[(2-fluoro-4-{3-[(1-formylpyrrolidin-3-yl)oxy]-1H-pyrazolo[3,4-b]pyridin-4-yl}phenyl)methyl]-1,2,4-oxadiazole-3-carboxamide] | 0.0038 | 1.09 |  | 287 | 
11 | CC(=O)N[C@@H]1CCN(c2n[nH]c3nccc(-c4ccc(CNC(=O)c5ccc(C(C)(C)O)cc5F)c(F)c4)c23)C1 [Example 423, N-[(4-{3-[(3R)-3-acetamidopyrrolidin-1-yl]-1H-pyrazolo[3,4-b]pyridin-4-yl}-2-fluorophenyl)methyl]-2-fluoro-4-(2-hydroxypropan-2-yl)benzamide] | 0.0505 | 3.9 |  |  | 
